In US20110190492A1, “DIAGNOSTIC PROBE FOR CONFORMATION DISEASE” (TOHOKU UNIVERSITY, priority 2005, published 2011):
Where two headings read alike, the source gives them in different places.

Legend:
[1] = Brain permeability of [^18F]-labeled compound in mice; format: in vivo, male ICR mice; settings: 2 minutes after intravenous administration, radioactivity
Procedure: The partitioning HPLC fraction containing [^18F]THK525, [^18F]THK702, [^18F]THK727 or [^18F]THK763, obtained through labeling production, was diluted with distilled water (about 20 mL), then loaded in Sep-Pak tC18 cartridge (by waters). The cartridge was washed with distilled water (5 to 10 mL), and then the labeled compound was eluted with EtOH (3 to 5 mL). A suitable amount of 5% Polysorbate 80/ethanol solution was added to the EtOH eluate, and the solvent was evaporated away with heating at 80° C. with a rotary evaporator. Thus obtained, a mixture of the labeled compound and Polysorbate 80 was dissolved in physiological saline, thereby preparing a labeled compound-containing physiological saline. Thus prepared, the radiochemical purity of the chemical solution was 95% or more.
[^18F]THK525, [^18F]THK702, [^18F]THK727 or […] to male ICR mice (6 to 7 weeks-age) via their tail vein. From the radioactivity deposition in the brain after 2 and 30 minutes, the brain permeability of the labeled compound was assessed. The radiochemical purity of the labeled compound-containing physiological saline used was at least 95%, and the relative radioactivity thereof was from 18.5 to 148 GBq/μmol; and from 1.11 to 2.22 MBq of the labeled compound was administered to one mouse. Regarding the assessment of the radioactivity deposition, the proportion of the radioactivity per the unit weight of the sample tissue to the overall radioactivity given to the test animal (% injected dose/g of tissue; % ID/g) was taken as the index. For measuring the radioactivity, used was a gamma counter (1480 WIZARD, by Perkin Elmer). The experiment protocol was as follows: A labeled compound was administered to mice via their tail vein. After 2 and 30 minutes, the cervical spine of the mouse was dislocated under ether anesthesia. Immediately, the blood was collected from its heart, and the whole brain (including cerebellum and brainstem) was taken out. The radioactivity and the tissue weight of each sample were measured, and from the data, % ID/g was computed.

amyloid β protein = molecular target: T1, amyloid β protein (Homo sapiens, UniProt P05067); assay: Staining test on a brain section of an Alzheimer disease patient (amyloid β protein); format: binding, human (Alzheimer disease patient); settings: 100 μM compound in 50% ethanol, 10 minutes, fluorescence microscopy
T1 construct: from tissue; host or cells: paraffin-embedded human brain sections (temporal lobe, hippocampus) of Alzheimer disease patients
T1 sequence (P05067 672-713 limits assumed): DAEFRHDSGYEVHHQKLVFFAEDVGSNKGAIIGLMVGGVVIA
Description: (§1) (1) Brain specimens at the temporal lobe and the hippocampus of patients to which a definitive diagnosis of Alzheimer disease had been given, and those of normal senile persons were used. The specimens were given by our coworker, Fukushimura Hospital, Longevity Medicine Institute, and we were given their consent of use of the specimens for our study purpose by the bereaved of the patients (Fukushimura Hospital Ethical Review Board Approval No. 20).
(§2) (2) The paraffin-embedded brain tissue was cut into slices having a thickness of 6 μm or 8 μm, and extended and dried on a slide. The paraffin brain section was processed for paraffin removal in xylene twice for 10 minutes, 100% ethanol twice for 5 minutes, 90% ethanol for 5 minutes and running water for 10 minutes in that order.
(§3) (3) For pretreatment prior to the staining treatment with a compound of the invention, the sections were processed for autofluorescence removal with lipofuscin. First, the paraffin-removed sections were dipped in 0.25% KMnO4 solution for 20 minutes. These were washed with PBS, twice for 2 minutes, then dipped in 0.1% K2S2O5/oxalic acid solution for about 5 seconds, and then further washed with PBS, three times for 2 minutes.
(§4) (4) About 150 μl of a 100 μM solution of a compound of the invention dissolved in 50% ethanol was dropwise applied to the section and reacted for 10 minutes. After dipped five times in tap water, the section was entrapped with Fluor Save Reagent (Calbiochem), and analyzed through microscopy with a fluorescence microscope (Nikon, Eclipse 80i). The images were taken with a digital camera (Nikon Dxm 1200F or Photometrics' Cool SNAP ES).

neurofibrillary tangle = assay: Staining test on a brain section of an Alzheimer disease patient (neurofibrillary tangle); format: binding, human (Alzheimer disease patient); settings: 100 μM compound in 50% ethanol, 10 minutes, fluorescence microscopy
Description: as §1, §2, §3, §4

[2] = system: histidine-requiring Salmonella typhimurium TA100 and TA98 strains; assay: Mutagenicity test (reverse mutation test); format: cell-based
Procedure: In view of their use, it is desirable that the compounds of the invention have no mutagenicity or have little mutagenicity to a level causing no problem. For investigating the gene mutagenesis of the compounds of the invention, herein carried out was a reverse mutation test with histidine-requiring Salmonella typhimurium TA100 and TA98 strains. Two tests were carried out. One is a test for dose determination test; and the other is for mutagenicity.
The test methods and the mutagenicity of the compounds of the invention are mentioned below. In the dose determination test, six doses of 0.160, 0.800, 4.00, 20.0, 100 and 500 μg/plate (common ratio 5) were tried.
As a result of the dose determination test, when the mutagenicity of the test compound was admitted, then the actual test for mutagenicity was carried out, using the dose capable of giving an accurate dose-reaction curve. When no mutagenicity of the test compound was admitted in the dose determination test and when the growth inhibition of the test cells was admitted therein, then the dose to present the growth inhibition was taken as the maximum dose; and when the growth inhibition was not admitted, then a dose of 5000 μg/plate was taken as the maximum dose. With that, the actual test for mutagenicity was carried out on the level of 6 doses (common ratio 2).
First, a test compound was dissolved or suspended in DMSO, then diluted in order to prepare test compound liquids having a varying concentration.
100 μl of a test compound liquid or a negative control (DMSO) solution was put into a sterilized test tube. Then, for the case in the absence of a metabolic activation system (−S9mix), 500 μl of 0.1 mol/liter sodium-phosphate buffer (pH 7.4) was added to it; and for the case in the presence of a metabolic activation system (+S9mix), 500 μl of S9mix was added to it.
Next, 100 μl of the test strain suspension that had been cultivated with shaking at 37° C. for 8 hours was added to it, and preincubated in a shaking thermostat at 37° C. for 20 minutes. After shaken, 2 ml of top agar was added to it, and the contents were mixed.
Next, the mixture was poured onto a minimal glucose agar plate medium (plate) and spread uniformly thereon, then the top agar was solidified, and the plate was transferred into a thermostat and incubated at 37° C. for 48 hours.
Then, the number of the colonies grown through reverse mutation was counted.
For counting it, […]. After area correction and miss-counting correction, the number of the colonies was computed. When the colony analyzer could not be used owing to the deposition of the test compound or the cell growth inhibition, then the number of the colonies was counted with the naked eye.
In case where the number of the colonies through reverse mutation increased two times or more that of the negative control and where the dose dependency or the reproducibility of the increase was admitted, then the tested sample was decided as positive. When the sample was decided as positive, then the relative activity that indicates the relative comparative value of the intensity of the mutagenicity of the test compound was obtained according to the following formula:
Relative Activity={(number of colonies per plate having the concentration)−(number of colonies per negative control plate)}/the value of concentration (mg/plate).

[3] = Acute toxicity test, intravenous administration to mice; format: in vivo; settings: mice observed for 7 days
Procedure: The compounds of the invention were tested for their acute toxicity through intravenous administration thereof to mice. Four Crj:CD1 male mice formed one test group, and some test groups of those mice were used (the mean body weight of the mice of each group was from 31 to 32 g). A test compound was dissolved in a mixture of 1 N HCl, polyethylene glycol-400 and distilled water, or dissolved in DMSO, and then diluted with distilled water. This was administered to each mouse via its tail vein.

Amyloid β protein 1-40 = molecular target: T2, Amyloid β protein 1-40 (Homo sapiens, UniProt P05067); assay: Fluorescence Congo red method; format: binding; settings: 1 h, compound 10 μM, amyloid β protein 5 μM
T2 construct: Amyloid β protein 1-40 (bought from Peptide Laboratory); purchased Peptide Laboratory
T2 sequence (P05067 672-711): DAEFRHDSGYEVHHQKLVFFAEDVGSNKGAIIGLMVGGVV
Procedure: (1) Amyloid β protein 1-40 (bought from Peptide Laboratory) was dissolved in a phosphate buffer (pH 7.4) and left at 37° C. for 4 days.
(2) 50 μl of Congo red dissolved in the buffer was applied to a 96-well microplate (final concentration, 0.1, 0.3, 1 μM).
(3) 100 μl of amyloid β protein was added to it (final concentration 5 μM), and left as such for 30 minutes.
(4) 100 μl of a test compound dissolved in the buffer was added to it (final concentration, 10 and left as such for 60 minutes.
(5) Using a fluorescence microplate reader (Spectra Max 190 by Molecular Device), the sample was analyzed at the optimum exciting wavelength and the test wavelength that had been previously determined.
(6) The fluorescence intensity in the presence of the test compound, amyloid β protein and Congo red is represented by A; that in the presence of the test compound and Congo red is by B; that in the presence of the test compound and amyloid β protein is by C; and that in the presence of only the test compound is by D. The β structure recognition of the test compound is computed according to the following formula:
β structure recognition (%) of test compound={(A−B)/(C−D)}×100.

[4] = irrespective of the absence or presence of S9mix

SMILES	Brain Permeability of [^18F]-labeled Compound: Brain [1]	Brain Permeability of [^18F]-labeled Compound: Plasma [1]	binding to amyloid β protein in the brain section of an Alzheimer disease patient (amyloid β protein)	binding to neurofibrillary tangle in the brain section of an Alzheimer disease patient (neurofibrillary tangle)	Maximum Permissible Dose [3]	further results
CN(C)c1ncc(/C=C/c2nc3ccc(OC(CO)CF)cc3o2)s1 (stereo not drawn) [[^18F]THK-763]	4.6 % ID/g or ml	3.7 % ID/g or ml				
CN1C=CC(=CC=C2C=CC(=O)C=C2)C=C1 [THK-317, 4-[2-(1-methyl-1H-pyridin-4-ylidene)-ethylidene]-cyclohexa-2,5-dienone]			bound to the amyloid β protein	bound to the amyloid β protein and the neurofibrillary tangle		
CN(C)c1ccc(-c2nnc(-c3sc4ccccc4c3Cl)o2)cc1 [THK-258, [4-[5-(3-chloro-benzo[b]thiophen-2-yl)-[1,3,4]oxadiazol-2-yl]-phenyl]-dimethylamine]			bound to the amyloid β protein	bound to the amyloid β protein and the neurofibrillary tangle		
CN(C)c1ncc(/C=C/c2nc3ccc(OC(CO)CF)cc3o2)s1 (stereo not drawn) [THK-763, (E)-6-[(1-fluoromethyl-2-hydroxy)ethoxy]-2-[2-[2-dimethylamino-thiazol-5-yl]ethenyl]benzoxazole]			The white space arrow indicates amyloid β protein		≧10 mg/kg	relative activity ([2]; in the presence of S9mix): weak
CNc1ncc(/C=C/c2nc3ccc(OC(CO)CF)cc3o2)s1 (stereo not drawn) [THK-761, (E)-6-[(1-fluoromethyl-2-hydroxy)ethoxy]-2-[2-[2-methylaminothiazol-5-yl]ethenyl]-benzoxazole]			The white space arrow indicates amyloid β protein		≧10 mg/kg	relative activity ([2]; in the presence of S9mix): weak
FCCOc1ccc2nc(/C=C/c3cnc(N4CCOCC4)s3)oc2c1 [THK-525, 6-(2-fluoro-ethoxy)-2-[2-(2-morpholin-4-yl-thiazol-5-yl)-vinyl]-benzoxazole]			bound to the amyloid β protein		≧10 mg/kg	relative activity [2, 4]: minus
OCC(CF)COc1ccc2nc(/C=C/c3cnc(N4CCOCC4)s3)oc2c1 (stereo not drawn) [[^18F]THK-727]	4.1 % ID/g or ml	2.9 % ID/g or ml				
FCCOc1ccc2nc(/C=C/c3cnc(N4CCOCC4)s3)oc2c1 [[^18F]THK-525]	4.7 % ID/g or ml	2.8 % ID/g or ml				
CN1C=CC(=C/C=C2\C=Nc3ccccc32)C=C1 [THK-185, 3-[2-(1-methyl-1H-pyridin-4-ylidene)-ethylidene]-3H-indole]			bound to the amyloid β protein	bound to the amyloid β protein and the neurofibrillary tangle		
OCC(CF)Oc1ccc2nc(/C=C/c3cnc(N4CCOCC4)s3)oc2c1 (stereo not drawn) [[^18F]THK-702]	4.2 % ID/g or ml	2.3 % ID/g or ml				
OCC(CF)COc1ccc2nc(/C=C/c3cnc(N4CCOCC4)s3)oc2c1 (stereo not drawn) [THK-727, 2-fluoromethyl-3-[2-[2-(2-morpholin--yl-thiazol-5-yl)-vinyl]-benzoxazol-6-yloxy]-propan-1-ol]			The white space arrow indicates amyloid β protein	the white space arrow head indicates neurofibrillary tangle	≧10 mg/kg	relative activity [2, 4]: minus; activity at 10 µM (Amyloid β protein 1-40; Congo red 0.1 μM, read-out: Binding Percentage of Compound in the presence of 0.1 μM CR): 73.6%; activity at 10 µM (Amyloid β protein 1-40; Congo red 0.3 μM, read-out: Binding Percentage of Compound in the presence of 0.3 μM CR): 35%; activity at 10 µM (Amyloid β protein 1-40; Congo red 1 μM, read-out: Binding Percentage of Compound in the presence of 1 μM CR): 3.1%
